Results taken from patent US9532977B2, “Controlled release oral dosage forms of poorly soluble drugs and uses thereof” (Celgene Corporation, priority 2010, dated 2017).
≈ marks a conversion by molar mass, not a printed value.

What was measured:
[1] = pharmacokinetic parameters of Compound A in monkeys; conditions: monkey, in vivo, 10 mg/kg PO
Protocol: (§1) The aqueous room temperature solubilities of Compounds A and Compound B is 6.9 μg/mL and 2.0 μg/mL, respectively. Daily doses of Compound A ranging from 10 mg to 100 mg per day have been administered to approximately 1000 subject in clinical studies to date. […] Therefore a controlled release dosage is clearly needed for Compound A.

[2] = aqueous room temperature solubility; type: physicochemical; conditions: for solubility: water, aqueous, room temperature
Protocol: as §1

half-life [1] [h] | aqueous solubility of amorphous form compared to crystalline forms ([2]; amorphous form vs crystalline forms) | solubility [2] [µg/mL] | SMILES
~2 | greater aqueous solubility | 6.9 (≈ 15 µM) | CCOc1cc([C@@H](CS(C)(=O)=O)N2C(=O)c3cccc(NC(C)=O)c3C2=O)ccc1OC [Compound A, (S)—N-{2-[1-(3-ethoxy-4-methoxy-phenyl)-2-methanesulfonylethyl]-1,3-dioxo-2,3-dihydro-1H-isoindol-4-yl}acetamide]
 |  | 2 (≈ 4.23 µM) | CCOc1cc([C@@H](CS(C)(=O)=O)N2Cc3cccc(NC(=O)C4CC4)c3C2=O)ccc1OC [Compound B, cyclopropanecarboxylic acid {2-[(1S)-1-(3-ethoxy-4-methoxy-phenyl)-2-methanesulfonyl-ethyl]-3-oxo-2,3-dihydro-1H-isoindol-4-yl}-amide]
